The values below come from patent US8580526B2, “Methods of using GPR119 receptor to identify compounds which stimulate glucose-dependent insulinotropic peptide secretion” (Arena Pharmaceuticals, Inc., priority 2006, dated 2013).

For test [1], the target named is T1, GPR119 (Mus musculus, UniProt Q7TQP3).
T1 sequence (Q7TQP3 1-335): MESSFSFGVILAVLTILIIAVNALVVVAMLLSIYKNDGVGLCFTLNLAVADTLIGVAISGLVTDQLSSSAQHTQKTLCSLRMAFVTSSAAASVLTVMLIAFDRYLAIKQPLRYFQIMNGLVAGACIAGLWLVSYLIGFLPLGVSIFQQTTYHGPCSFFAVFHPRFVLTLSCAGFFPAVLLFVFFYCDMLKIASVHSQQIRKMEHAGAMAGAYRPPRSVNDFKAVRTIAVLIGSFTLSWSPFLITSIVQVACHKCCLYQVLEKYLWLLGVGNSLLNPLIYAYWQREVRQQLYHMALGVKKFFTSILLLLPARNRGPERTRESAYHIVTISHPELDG
The test is described as follows: Effect of oral GPR119 agonist on blood GIP level in GPR119-deficient (knockout) mice compared to wild-type mice, rodent GIP ELISA. It is filed as in vivo, GPR119-deficient male mice and wild-type littermates. Also noted: endogenous in cells; host or cells: whole animal: GPR119-deficient male mice and wild-type littermates, oral dosing. The conditions noted are these: 20 mg/kg per orally, FIG. 2A. The protocol:
A. GPR119-deficient male mice and wild-type littermates were fasted for 18 hours. Mice were administered per orally with vehicle (PET; 80% PEG400, 10% ethanol, 10% Tween80) or with a GPR119 agonist in accordance with the present invention (Compound 1; (2-Fluoro-4-methanesulfonyl-phenyl)-{6-[4-(3-isopropyl-[1,2,4]oxadiazol-5-yl)-piperidin-1-yl]-5-nitro-pyrimidin-4-yl}-amine) at 20 mg/kg, as indicated (n=5). Thirty minutes after treatment, blood (100 microliter) was collected via retro orbital vein of the eye (time 0) followed by a glucose bolus at 3 g/kg (per orally). Five minutes after I delivering glucose, another blood sample (100 microliter) was collected (time 5 minutes). Plasma were collected after centrifugation and GIP levels were determined by using a rodent GIP ELISA kit purchased from Linco Research Laboratory [Rat/Mouse Gastric Inhibitory Polypeptide (Total) ELISA Catalog #EZRMGIP-55K], following instructions provided by the supplier. […]
B. GPR119-deficient male mice and wild-type littermates were fasted for 18 hours. […] Plasma were collected after centrifugation and GIP levels were determined by using a rodent GIP ELISA kit purchased from Linco Research Laboratory [Rat/Mouse Gastric Inhibitory Polypeptide (Total) ELISA Catalog #EZRMGIP-55K], following instructions provided by the supplier. […]

Test [2] deals with T1, GPR119. The test is described as follows: Pharmacodynamic analysis of effect of oral GPR119 agonist on blood (plasma total) GIP level in wild-type mice, rodent GIP ELISA. The conditions noted are these: 20 mg/kg per orally, 30 min before glucose bolus 3 g/kg, FIG. 1A. It is filed as in vivo, C57blk/6 male mice. The arrangement: Effect of Administration of GPR119 Agonist on Blood GIP Level in Wild-Type Mice; endogenous in cells; host or cells: whole animal: C57blk/6 male mice, oral dosing. How it is done: A. C57blk/6 male mice were fasted for 18 hours, and randomly assigned into fourteen groups with n=6 for each group. Mice were administered per orally with vehicle (PET; 80% PEG400, 10% ethanol, 10% Tween80) or with a GPR119 agonist in accordance with the present invention (Compound 1; (2-Fluoro-4-methanesulfonyl-phenyl)-{6-[4-(3-isopropyl-1,2,4]oxadiazol-5-yl)-piperidin-1-yl]-5-nitro-pyrimidin-4-yl}-amine) at 20 mg/kg, as indicated in FIG. 1A. Thirty minutes after treatment, a glucose bolus at 3 g/kg were delivered per orally, and plasma were collected at 0 (no glucose bolus), 2, 5, 10, 20, 40 and 60 minutes after glucose bolus. Plasma GIP levels were determined by using a rodent GIP ELISA kit purchased from Linco Research Laboratory [Rat/Mouse Gastric Inhibitory Polypeptide (Total) ELISA Catalog #EZRMGIP-55K], following instructions provided by the supplier. […]
B. C57blk/6 male mice were fasted for 18 hours, and randomly assigned into fourteen groups with n=6 for each group. […] Plasma GIP levels were determined by using a rodent GIP ELISA kit purchased from Linco Research Laboratory [Rat/Mouse Gastric Inhibitory Polypeptide (Total) ELISA Catalog #EZRMGIP-55K], following instructions provided by the supplier. […] Mean values of GIP concentration were calculated based on results with six mice in each group and shown as mean±SEM. […]
For orientation: ELISA stands for enzyme-linked immunosorbent assay.

Take `CC(C)c1noc(C2CCN(c3ncnc(Nc4ccc(S(C)(=O)=O)cc4F)c3[N+](=O)[O-])CC2)n1` [Compound 1, (2-Fluoro-4-methanesulfonyl-phenyl)-{6-[4-(3-isopropyl-[1,2,4]oxadiazol-5-yl)-piperidin-1-yl]-5-nitro-pyrimidin-4-yl}-amine]: the “dependence on GPR119 of the increase of glucose-independent and glucose-dependent level of GIP in the blood” value on GPR119 [1] (GPR119-deficient vs wild-type mice, time 0 and 5 min after glucose bolus 3 g/kg) was “functional GPR119 receptor was necessary”. Moreover, the “plasma total GIP in wild-type mice” value at GPR119 [1] (blood 30 min after treatment (time 0) and 5 min after glucose bolus 3 g/kg) was “stimulated plasma total GIP in the wild-type mice”. Also, the “glucose-dependent and glucose-independent level of GIP in the blood” value on GPR119 [2] (plasma at 0 (no glucose bolus) to 60 min) is “increased both a glucose-dependent and a glucose-independent level of GIP”. Also, on GPR119 [2] (plasma at 0 (no glucose bolus), 2, 5, 10, 20, 40, 60 min, vs vehicle PET), the “plasma total GIP” value is “stimulated plasma total GIP”.
